Assay results taken from ChEMBL document CHEMBL1132475, “Synthesis and in vitro anti-HIV activity in human monocyte-derived macrophages of 2-oxothiazolidine-4(R)-carboxylic acid derivatives” (1999).

Species on record: Homo sapiens
Test: The compound was tested for antiviral activity against HIV-1/Ba-L-infected monocyte-derived macrophages in human at a concentration of 0.5 mM
Assay type: functional
Conditions: at 0.5 mM

Row | SMILES | Untreated control
1 | O=C1N[C@H](C(=O)OCC(=O)c2ccccc2)CS1 | 69%
2 | O=C1N[C@H](C(=O)O)CS1 [PROCYSTEINE] | 81%

Species on record: Homo sapiens
Test: The compound was tested for antiviral activity against HIV-1/Ba-L-infected monocyte-derived macrophages in human at a concentration of 2 mM
Assay type: functional
Conditions: not given

Row | SMILES | Percent of untreated control
3 | CC(=O)N1C(=O)SC[C@H]1C(=O)O | 34%
4 | CCOC(=O)[C@@H]1CSC(=O)N1C(=O)CC[C@H](N)C(=O)O.Cl | 37%
5 | Cl.N[C@@H](CCC(=O)N1C(=O)SC[C@H]1C(=O)NCC(=O)O)C(=O)O | 159%
6 | Cl.N[C@@H](CCC(=O)N1C(=O)SC[C@H]1C(=O)O)C(=O)O | 83%
7 | CC(C)(C)OC(=O)CNC(=O)[C@@H]1CSC(=O)N1 | 104%
8 | O=C(O)CNC(=O)[C@@H]1CSC(=O)N1 | 45%
9 | CCOC(=O)[C@@H]1CSC(=O)N1 | 86%
10 | CC(C)(C)OC(=O)N[C@@H](CCC(=O)N1C(=O)SC[C@H]1C(=O)O)C(=O)OC(C)(C)C | 102%
11 | CC(=O)N[C@@H](CS)C(=O)O [ACETYLCYSTEINE] | 88%
12 | O=C1N[C@H](C(=O)O)CS1 [PROCYSTEINE] | 37
